Data published in publication PMC5590075, “Synthesis, Antimicrobial, and Antioxidant Activities of Chalcogen-Containing Nitrone Derivatives from (R)-citronellal” (Medicines, 2017).
Several values for one entry are separate records, joined by “and”; a condition that tells them apart may be missing. Identical values can stand only once.

Experiments:
[1] = molecular target: T1, δ-ALA-D (Mus musculus, UniProt P10518); assay: δ-ALA-D activity in tissue supernatants (in vitro toxicity); settings: mean ± SD (n = 3)
T1 sequence (P10518 1-330): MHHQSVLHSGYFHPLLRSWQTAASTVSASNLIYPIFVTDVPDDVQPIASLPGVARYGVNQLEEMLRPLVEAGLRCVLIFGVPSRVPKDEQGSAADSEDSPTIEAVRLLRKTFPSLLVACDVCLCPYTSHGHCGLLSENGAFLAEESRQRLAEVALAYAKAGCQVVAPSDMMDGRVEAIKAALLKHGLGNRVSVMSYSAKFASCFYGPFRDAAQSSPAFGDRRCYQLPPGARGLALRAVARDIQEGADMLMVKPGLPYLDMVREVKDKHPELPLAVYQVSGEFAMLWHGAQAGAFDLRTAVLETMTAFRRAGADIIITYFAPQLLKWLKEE

[2] = test system: Salmonella Typhimurium ATCC 14028; assay: agar disk diffusion test; type: cell-based; settings: S. Typhimurium, 1.0 × 10^8 CFU.mL^−1; 20 μL compound diluted in DMSO (1:1) per 6 mm disc; streptomycin 10 µg; mean of two repetitions
Text: (§1) To evaluate the antimicrobial potential of the synthesized compounds, the following reference strains of bacteria, that are economically important in foods, were employed: Gram-positive Listeria monocytogenes ATCC 7644, Staphylococcus aureus ATCC 25923, and Bacillus cereus ATCC 11778; Gram-negative Salmonella Typhimurium ATCC 14028, Escherichia coli O157: H7 NCTC 12900 and the clinically important Pseudomonas aeruginosa ATCC 15442.
(§2) The antimicrobial activity assay using the disk diffusion test was realized using the methodology that is recommended by the Clinical Laboratory Standards Institute (CLSI). The determination of the minimum inhibitory concentration (MIC) and minimum bactericidal concentration (MBC) was performed using the macro dilution tube method, in accordance with Rota et al., with modifications. Details of these assays are provided in the Supplemental Material. […]
(§3) 2.1. Antimicrobial activity assay using the disk diffusion test
(§4) The disk diffusion test followed the methodology recommended by the Clinical Laboratory Standards Institute CLSI [4]. The inoculum was standardized by standard McFarland to the concentration of 10^8 CFU.mL−1 and spread on the surface of a Petri dish containing Mueller‐Hinton (MH) agar. Then, the paper disc (6 mm) was put on a plate impregnated with 20 μL of the testing compound previously diluted in DMSO (1:1) and incubated at 37 °C for 24 hours. Zone of inhibition ≥20 mm were considered as strong inhibition, <20–12 mm as moderate inhibition, and <12 mm no inhibition. A positive control with streptomycin antibiotic (10 μg) and a negative one, with paper discs impregnated with distilled water, were used […]
(§5) 2.4. Radical Scavenging Activity […]
(§6) The ABTS radical scavenging activity was determined according to the method described by Erel. Different concentrations of compounds 5a–d and 10 (10–500 μ M) were mixed with the ABTS+ solution, and the decrease in the absorbance at 734 nm was recorded.

[3] = test system: Listeria monocytogenes ATCC 7644; assay: agar disk diffusion test; type: cell-based; settings: L. monocytogenes, 1.0 × 10^8 CFU.mL^−1; 20 μL compound diluted in DMSO (1:1) per 6 mm disc; streptomycin 10 µg; mean of two repetitions
Text: as §1, §2, §3, §4, §5, §6

[4] = test system: Bacillus cereus ATCC 11778; assay: agar disk diffusion test; type: cell-based; settings: B. cereus, 1.0 × 10^8 CFU.mL^−1; 20 μL compound diluted in DMSO (1:1) per 6 mm disc; streptomycin 10 µg; mean of two repetitions
Text: as §1, §2, §3, §4, §5, §6

[5] = test system: Staphylococcus aureus ATCC 25923; assay: agar disk diffusion test; type: cell-based; settings: S. aureus, 1.0 × 10^8 CFU.mL^−1; 20 μL compound diluted in DMSO (1:1) per 6 mm disc; streptomycin 10 µg; mean of two repetitions
Text: as §1, §2, §3, §4, §5, §6

[6] = test system: Escherichia coli O157: H7 NCTC 12900; assay: agar disk diffusion test; type: cell-based; settings: E. coli O157:H7, 1.0 × 10^8 CFU.mL^−1; 20 μL compound diluted in DMSO (1:1) per 6 mm disc; streptomycin 10 µg; mean of two repetitions
Text: as §1, §2, §3, §4, §5, §6

[7] = test system: Pseudomonas aeruginosa ATCC 15442; assay: agar disk diffusion test; type: cell-based; settings: P. aeruginosa, 1.0 × 10^8 CFU.mL^−1; 20 μL compound diluted in DMSO (1:1) per 6 mm disc; streptomycin 10 µg; mean of two repetitions
Text: as §1, §2, §3, §4, §5, §6

[8] = Ferric ion reducing antioxidant power (FRAP); settings: mean ± SD (n = 3)
Procedure: The antioxidant properties of the synthesized compounds (5a–d and 10) were evaluated by three different methods in vitro: DPPH (1,1-diphenyl-2-picryl-hydrazyl) and ABTS^+ (2,2′-azino-bis(3-ethylbenzthiazoline-6-sulfonic acid) radical scavenging ability and ferric ion reducing antioxidant power (FRAP). All drugs were dissolved in dimethyl sulfoxide (DMSO) at concentrations of 1–500 µM. These assays were performed according to the literature and details of these experiments are described elsewhere (see the ‘Results and Discussion’ section for the references).
values, as calculated by the following equation:
I% = [(Ac−As/Ac) × 100] (1)
3. Ferric ion reducing antioxidant power (FRAP)
reducing capacity of compounds 5a–d and 10.
[8] with slight modifications. […]

[9] = test system: Pseudomonas aeruginosa ATCC 15442; assay: MIC and MBC, macro dilution tube method; type: cell-based; settings: P. aeruginosa; for MBC: 10^5 CFU.mL^−1
Text: as §1, §2
2.2. Determination of the minimum inhibitory concentration (MIC) and minimum bactericidal concentration
The MIC was determined using the macro dilution tube method, in accordance with Rota et al.
[5], with modifications. The tested concentrations were 20, 18, 15, 12, 10, 7 and 5 μL.mL‐1 of each compound. In a tube with 1 mL of MH broth, was inoculated 105 UFC.mL‐1, the compound in a predetermined concentration and, to facilitate the solubility, 2 drops of TWEEN 80. The mixture was incubated at 37 °C for 24 h under stirring (150 rpm). As the positive control, MH broth and inoculum concentration in 105 UFC.mL‐1 and as the negative control MH, the inoculum concentration in 105 UFC∙mL‐1 and streptomycin (10 μg) were used. MIC was defined as the lowest concentration of […]
After 24 h, tubes with no visible growth were seeded in a […] TSA‐YE tube and incubated at 37 °C for 24 h. The MBC is the lowest concentration of compound where 99.9% of the initially inoculated cells were killed. […]
as §5, §6

Compound | δ-ALA-D activity ([1]; Brain, 10 μM) [nmol PBG.mg.tn‐1.h‐1] | δ-ALA-D activity ([1]; Brain, 50 μM) [nmol PBG.mg.tn‐1.h‐1] | δ-ALA-D activity ([1]; Brain, 100 μM) [nmol PBG.mg.tn‐1.h‐1] | δ-ALA-D activity ([1]; Brain, 500 μM) [nmol PBG.mg.tn‐1.h‐1] | δ-ALA-D activity ([1]; Kidney, 10 μM) [nmol PBG.mg.tn‐1.h‐1] | δ-ALA-D activity ([1]; Kidney, 50 μM) [nmol PBG.mg.tn‐1.h‐1] | δ-ALA-D activity ([1]; Kidney, 100 μM) [nmol PBG.mg.tn‐1.h‐1] | δ-ALA-D activity ([1]; Kidney, 500 μM) [nmol PBG.mg.tn‐1.h‐1] | δ-ALA-D activity ([1]; Liver, 10 μM) [nmol PBG.mg.tn‐1.h‐1] | δ-ALA-D activity ([1]; Liver, 50 μM) [nmol PBG.mg.tn‐1.h‐1] | δ-ALA-D activity ([1]; Liver, 100 μM) [nmol PBG.mg.tn‐1.h‐1] | δ-ALA-D activity ([1]; Liver, 500 μM) [nmol PBG.mg.tn‐1.h‐1] | Inhibition Zone [2] [mm] | Inhibition Zone [3] | Inhibition Zone [4] [mm] | Inhibition Zone [5] [mm] | Inhibition Zone [6] [mm] | Inhibition Zone [7] [mm] | Ferric ion reducing antioxidant power (FRAP), absorbance at 593 nm ([8]; 10 μM) | Ferric ion reducing antioxidant power (FRAP), absorbance at 593 nm ([8]; 50 μM) | further results
CC(C)=CCCC(C)C/C=[N+](\C)[O-] (centres unmarked) [5d, (E)-N,3,7-trimethyloct-6-en-1-imine oxide] | 0.29 ± 0.09 | 0.27 ± 0.10 | 0.26 ± 0.09 | 0.24 ± 0.08 | 1.02 ± 0.11 | 0.96 ± 0.12 | 0.89 ± 0.12 | 0.72 ± 0.07 | 4.50 ± 0.60 | 4.22 ± 0.78 | 3.54 ± 0.84 | 2.84 ± 0.57 | 23 | 31.0 mm and 31 mm | 29 | 24.5 | 22.5 | 23 | 0.412 ± 0.055 | 1.198 ± 0.024 | Ferric ion reducing antioxidant power (FRAP), absorbance at 593 nm ([8]; 1 μM): 0.166 ± 0.008; Ferric ion reducing antioxidant power (FRAP), absorbance at 593 nm ([8]; 5 μM): 0.280 ± 0.022
CC(C)=CCC[C@@H](C)C(/C=N/O)[Se]c1ccccc1 (stereo partly drawn) [compound 10, (3R,E)-3,7-dimethyl-2-(phenylselanyl)oct-6-enal oxime] | 0.30 ± 0.10 | 0.28 ± 0.09 | 0.26 ± 0.08 | 0.26 ± 0.07 | 0.96 ± 0.12 | 0.95 ± 0.10 | 0.84 ± 0.10 | 0.61 ± 0.12 | 4.90 ± 0.58 | 4.71 ± 0.53 | 4.57 ± 0.62 | 3.97 ± 0.82 | 10.5 | 21 mm | 19 | 22 | 9 | 9 | 0.084 ± 0.010 | 0.180 ± 0.008 | MBC [9]: >0.70 mM.mL^−1; MIC ([9]; 10^5 CFU.mL^−1, 24 h): >0.70 mM.mL^−1; Ferric ion reducing antioxidant power (FRAP), absorbance at 593 nm ([8]; 100 μM): 0.257 ± 0.007; Ferric ion reducing antioxidant power (FRAP), absorbance at 593 nm ([8]; 500 μM): 1.291 ± 0.045
CC(C)=CCCC(C)(C/C=[N+](\C)[O-])Sc1ccccc1 (centres unmarked) [5c, (E)-N,3,7-trimethyl-3-(phenylthio)oct-6-en-1-imine oxide] | 0.30 ± 0.10 | 0.28 ± 0.09 | 0.26 ± 0.08 | 0.26 ± 0.07 | 1.10 ± 0.12 | 1.02 ± 0.12 | 0.99 ± 0.10 | 0.90 ± 0.07 | 4.63 ± 0.82 | 4.31 ± 0.81 | 4.12 ± 0.90 | 3.88 ± 0.87 | – | 26.0 mm and 26 mm | 24.5 | 24 | 21.5 | 24 | 0.153 ± 0.047 | 0.543 ± 0.047 | MBC [9]: 0.61 mM.mL^−1; Ferric ion reducing antioxidant power (FRAP), absorbance at 593 nm ([8]; 100 μM): 1.121 ± 0.160
CC(C)=CCCC(C)C(/C=[N+](\C)[O-])Sc1ccccc1 (centres unmarked) [5a, (E)-N,3,7-Trimethyl-2-(phenylthio)oct-6-en-1-imine oxide] | 0.44 ± 0.09 | 0.42 ± 0.10 | 0.40 ± 0.11 | 0.36 ± 0.10 | 1.17 ± 0.05 | 1.17 ± 0.07 | 1.09 ± 0.08 | 0.90 ± 0.08 | 4.99 ± 0.84 | 4.87 ± 0.67 | 4.71 ± 0.89 | 4.46 ± 0.80 | 8.5 | 18 mm | 21.5 | 15 | 11 | 8.5 | 0.207 ± 0.019 | 0.572 ± 0.023 | Ferric ion reducing antioxidant power (FRAP), absorbance at 593 nm ([8]; 5 μM): 0.165 ± 0.007; Ferric ion reducing antioxidant power (FRAP), absorbance at 593 nm ([8]; 100 μM): 1.039 ± 0.067
